From patent publication US20230399341A1, “7-PHENYL SUBSTITUTED 2-AMINOQUINAZOLINE INHIBITORS OF HPK1” (MERCK SHARP & DOHME LLC, priority 2020, published 2023) come the findings set out here.

For this assay, the target named is T1, Human HPK1, catalytic domain (Homo sapiens, UniProt Q92918).
T1 sequence (Q92918 1-346): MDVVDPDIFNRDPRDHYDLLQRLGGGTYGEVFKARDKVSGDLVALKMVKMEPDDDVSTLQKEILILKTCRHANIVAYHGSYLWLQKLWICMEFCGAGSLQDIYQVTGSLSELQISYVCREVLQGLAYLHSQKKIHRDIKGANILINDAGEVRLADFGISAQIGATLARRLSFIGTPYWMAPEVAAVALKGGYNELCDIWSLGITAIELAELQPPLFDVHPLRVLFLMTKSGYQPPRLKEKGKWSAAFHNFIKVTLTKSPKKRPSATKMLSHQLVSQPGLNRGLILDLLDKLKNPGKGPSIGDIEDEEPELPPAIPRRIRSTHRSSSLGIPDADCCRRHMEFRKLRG
Description: HPK1-SLP76 TR-FRET Assay. In kind it is biochemical. Particulars: 75 pM HPK1, ATP 10 uM, SLP76 10 nM, 30 min pre-incubation, 60 min reaction. (In general: TR-FRET usually uses a lanthanide donor and a delayed reading to cut background.)

On to `Cc1c(-c2cc3nc(Nc4ccc(CS(=O)(=O)N5CCCC5)cc4)ncc3c(N)c2F)cnc2c1NCCO2` [Compound 2-115, 6-fluoro-7-(8-methyl-2,3-dihydro-1H-pyrido[2,3-b][1,4]oxazin-7-yl)-N~2~- {4-[(pyrrolidine-1-sulfonyl)methyl]phenyl} quinazoline-2,5-diamine], for which half-maximal inhibition (IC50) was put at 0.12 nM.
`COc1cc2c(cc1Nc1ncc3ccc(-c4cccc(O)c4)cc3n1)CNCC2` [Compound 1-59, 3-{2-[(6-methoxy-1,2,3,4-tetrahydroisoquinolin-7-yl)amino]quinazolin-7-yl}phenol]: it took 36.2 nM to reach half-maximal inhibition (IC50).
Turning to `COc1cc2c(cc1Nc1ncc3ccc(N4CC(C(N)=O)C4)cc3n1)CN(C)CC2` [Compound 3-53, 1-{2-[(6-methoxy-2-methyl-1,2,3,4-tetrahydroisoquinolin-7-yl)amino]quinazolin-7-yl}-azetidine-3-carboxamide], the IC50 – broadly, the concentration needed to halve the response being measured – was 669 nM.
`COc1cc2c(cc1Nc1ncc3c(N)c(F)c(Nc4cc(CO)ccn4)cc3n1)CN(C)CC2` [Compound 3-80, [2-({5-amino-6-fluoro-2-[(6-methoxy-2-methyl-1,2,3,4-tetra-hydroisoquinolin-7-yl)amino]-quinazolin-7-yl}amino)pyridin-4-yl]methanol] displayed an IC50 of 2.81 nM.
The figure for `COc1cc2c(cc1Nc1ncc3ccc(-c4ccc(CC#N)cc4)cc3n1)CNCC2` [Compound 1-64, (4-{2-[(6-methoxy-1,2,3,4-tetrahydroisoquinolin-7-yl)amino]quinazolin-7-yl}phenyl)acetonitrile] is 82 nM; for `COc1cc2c(cc1Nc1ncc3ccc(Nc4ccc5c(c4)C(=O)N(C)C5)cc3n1)CN(C)CC2` [Compound 3-23, 6-({2-[(6-methoxy-2-methyl-1,2,3,4-tetrahydroisoquinolin-7-yl)amino]quinazolin-7-yl}-amino)-2-methyl-2,3-dihydro-1H-isoindol-1-one] it is 46.3 nM; for `COc1cc2c(cc1Nc1ncc3ccc(OCC4CCN(c5cncc(C)n5)CC4)cc3n1)CN(C)CC2` [Compound 4-4, N-(6-methoxy-2-methyl-1,2,3,4-tetrahydroisoquin-olin-7-yl)-7-{[1-(6-methyl-pyrazin-2-yl)piperidin-4-yl]methoxy}quinazolin-2-amine] it is 158 nM.
`COc1cc2c(cc1Nc1ncc3ccc(-c4cncc(NS(=O)(=O)C(C)C)c4)cc3n1)CNCC2` [Compound 1-51, N-(5-{2-[(6-methoxy-1,2,3,4-tetrahydroisoquinolin-7-yl)amino]quinazolin-7-yl}pyridin-3-yl)propane-2-sulfonamide] showed an IC50 of 48 nM.
The compound `COc1cc2c(cc1Nc1ncc3ccc(NC4CCCC(O)C4)cc3n1)CN(C)CC2` (racemic) [Compound 3-39, (±)-3-({2-[(6-methoxy-2-methyl-1,2,3,4-tetrahydroisoquinolin-7-yl)amino]quinazolin-7-yl}-amino)cyclohexan-1-ol] had an IC50 of 228 nM.
The compound `Cc1c(-c2cc3nc(Nc4ccc(CC(=O)N(C)C)cc4)ncc3cc2F)cnc2c1NCCO2` [Compound 1-132, 2-(4-{[6-fluoro-7-(8-methyl-2,3-dihydro-1H-pyrido[2,3-b][1,4]oxazin-7-yl)quinazolin-2-yl]amino}phenyl)-N,N-dimethylacetamide] showed an IC50 of 0.132 nM.
Consider `COc1cc2c(cc1Nc1ncc3ccc(-c4cnc(C(C)(C)O)s4)cc3n1)CN(C)CC2` [Compound 1-15, 2-(5-{2-[(6-methoxy-2-methyl-1,2,3,4-tetrahydroisoquinolin-7-yl)amino]quinazolin-7-yl}-1,3-thiazol-2-yl)propan-2-ol], for which it took 42.7 nM to reach half-maximal inhibition (IC50).
On to `COc1cc2c(cc1Nc1ncc3ccc(-c4cccc(C(N)=O)c4)cc3n1)CN(C)CC2` [Compound 1-101, 3-{2-[(6-methoxy-2-methyl-1,2,3,4-tetrahydroisoquinolin-7-yl)amino]quinazolin-7-yl}benzamide], for which the IC50 came to 130 nM.
As for `COc1cc2c(cc1Nc1ncc3ccc(-c4cncc(N5CCN(C)CC5)c4)cc3n1)CNCC2` [Compound 1-54, N-(6-methoxy-1,2,3,4-tetrahydroisoquinolin-7-yl)-7-[5-(4-methylpiperazin-1-yl)pyridin-3-yl]quinazolin-2-amine], the figure is 18.9 nM; as for `Cc1c(-c2cc3nc(Nc4ccc(CS(=O)(=O)C5CC5)cc4)ncc3c(N)c2F)cnc2c1NCCO2` [Compound 2-136], 0.101 nM; as for `Cc1c(-c2cc3nc(Nc4ccc5c(c4)CCN(C)CC5)ncc3c(N)c2F)cnc2c1NCCO2` [Compound 2-119, 6-fluoro-7-(8-methyl-2,3-dihydro-1H-pyrido[2,3-b][1,4]oxazin-7-yl)-N~2~- (3-methyl-2,3,4,5-tetrahydro-1H-3-benzazepin-7-yl)quinazoline-2,5-diamine], 0.038 nM.
The figure for `COc1cc2c(cc1Nc1ncc3ccc(-c4cncc(CO)c4)cc3n1)CNCC2` [Compound 1-53, (5-{2-[(6-methoxy-1,2,3,4-tetrahydroisoquinolin-7-yl)amino]quinazolin-7-yl}pyridin-3-yl)methanol] is 5.6 nM; for `COc1cc2c(cc1Nc1ncc3ccc(NCc4noc(C)n4)cc3n1)CN(C)CC2` [Compound 3-52, N~2~-(6-methoxy-2-methyl-1,2,3,4-tetrahydroisoquinolin-7-yl)-N~7~-[(5-methyl-1,2,4-oxadiazol-3-yl)methyl]quinaz-oline-2,7-diamine] it is 97.9 nM; for `COc1cc2c(cc1Nc1ncc3ccc(N[C@H]4CCC[C@@H]4O)cc3n1)CN(C)CC2` [Compound 3-58, (1S,2S)-2-({2-[(6-methoxy-2-methyl-1,2,3,4-tetrahydroiso-quinolin-7-yl)amino]quinazolin-7-yl}amino)cyclopentan-1-ol] it is 180 nM.
As to `COc1cc2c(cc1Nc1ncc3ccc(-c4cccc(CN)c4)cc3n1)CNCC2` [Compound 1-61, 7-[3-(aminomethyl)phenyl]-N-(6-methoxy-1,2,3,4-tetrahydroisoquinolin-7-yl)quinazolin-2-amine], inhibition was half-maximal at 13.9 nM (IC50).
The figure for `COc1cc2c(cc1Nc1ncc3ccc(NC4(C(=O)N(C)C)CCC4)cc3n1)CN(C)CC2` [Compound 3-61, 1-({2-[(6-methoxy-2-methyl-1,2,3,4-tetrahydroisoquinolin-7-yl)amino]quinazolin-7-yl}-amino)-N,N-dimethylcyclo-butane-1-carboxamide] is 824 nM; for `COc1cc2c(cc1Nc1ncc3ccc(-c4cnccc4Cl)cc3n1)CNCC2` [Compound 1-38, 7-(4-chloropyridin-3-yl)-N-(6-methoxy-1,2,3,4-tetrahydroisoquinolin-7-yl)quinazolin-2-amine] it is 17.9 nM; for `CNC(=O)c1ccc(Nc2ncc3c(N)c(F)c(-c4cnc5c(c4C)NCCO5)cc3n2)cc1` [Compound 2-23, 4-{[5-amino-6-fluoro-7-(8-methyl-2,3-dihydro-1H-pyrido[2,3-b][1,4]oxazin-7-yl)quinazolin-2-yl]amino}-N-methylbenzamide] it is 0.0508 nM.
As for `COc1cc2c(cc1Nc1ncc3c(N)cc(-c4cnccc4C)cc3n1)CNCC2` [Compound 2-37, N^2-(6-methoxy-1,2,3,4-tetrahydroisoquinolin-7-yl)-7-(4-methylpyridin-3-yl)quinazoline-2,5-diamine], the figure is 0.372 nM; as for `Cc1c(-c2cc3nc(Nc4cc5c(cn4)CCN(C)C5)ncc3c(N)c2F)cnc2c1NCCO2` [Compound 2-142, 6-fluoro-7-(8-methyl-2,3-dihydro-1H-pyrido[2,3-b][1,4]oxazin-7-yl)-N~2~- (6-methyl-5,6,7,8-tetrahydro-2,6-naphthyridin-3-yl)quinazoline-2,5-diamine], 1.23 nM.
`Cc1c(-c2cc3nc(Nc4ccc(CS(C)(=O)=O)cc4)ncc3c(N)c2F)cnc2c1NCCO2` [Compound 2-24, 6-fluoro-7-(8-methyl-2,3-dihydro-1H-pyrido[2,3-b][1,4]oxazin-7-yl)-N˜2˜-{4-[(methylsulfonyl)methyl]phenyl}quinazoline-2,5-diamine]: the IC50 is 0.0508 nM.
As for `COc1cc2c(cc1Nc1ncc3ccc(-c4ccccc4N4CCOC4=O)cc3n1)CN(C)CC2` [Compound 1-10, 3-(2-{2-[(6-methoxy-2-methyl-1,2,3,4-tetrahydroisoquinolin-7-yl)amino]quinazolin-7-yl}phenyl)-1,3-oxazolidin-2-one], the figure is 27 nM; as for `COc1cc2c(cc1Nc1ncc3ccc(NCc4ccc5c(c4)C(=O)NC5)cc3n1)CN(C)CC2` [Compound 3-28, 6-[({2-[(6-methoxy-2-methyl-1,2,3,4-tetrahydroisoquinolin-7-yl)amino]quinazolin-7-yl}-amino)methyl]-2,3-dihydro-1H-isoindol-1-one], 51.8 nM.
Regarding `Cc1c(-c2cc3nc(Nc4ccc5c(c4)CNCCC5)ncc3c(N)c2F)cnc2c1NCCO2` [Compound 2-120, 6-fluoro-7-(8-methyl-2,3-dihydro-1H-pyrido[2,3-b][1,4]oxazin-7-yl)-N~2~- (2,3,4,5-tetrahydro-1H-2-benzazepin-8-yl)quinazoline-2,5-diamine], the concentration for half-maximal inhibition (IC50) was found to be 0.0066 nM.
Turning to `Cc1c(-c2cc3nc(Nc4ccc5c(c4)CN(C(C)C)CC5)ncc3c(N)c2F)cnc2c1NCC(C)O2` (single isomer, unassigned) [Compound 2-145, 7-(3,8-dimethyl-2,3-dihydro-1H-pyrido[2,3-b][1,4]oxazin-7-yl)-6-fluoro-N2-(2-isopropyl-1,2,3,4-tetrahydroisoquinolin-7-yl)quinazoline-2,5-diamine], 0.051 nM corresponded to half-maximal inhibition (IC50).
On to `CNC(=O)C(F)(F)c1ccc(Nc2ncc3c(N)c(F)c(-c4cnc5c(c4C)NCCO5)cc3n2)cc1` [Compound 2-186, 2-(4-{[5-amino-6-fluoro-7-(8-methyl-2,3-dihydro-1H-pyrido[2,3-b][1,4]oxazin-7-yl)quinazolin-2-yl]amino}phenyl)-2,2-difluoro-N-methylacetamide], for which the IC50 is 0.136 nM.
